The target in data set [1] is T1, OCT1*5 (Gly465Arg/Met420del) (Homo sapiens, UniProt O15245, DEL420-420/G465R/L160F).
T1 construct: expressed in transfected cells; host or cells: HEK293 T-REx (Flp-In)
T1 sequence (O15245 with tags, fused parts or gaps L160F/DEL420-420/G465R): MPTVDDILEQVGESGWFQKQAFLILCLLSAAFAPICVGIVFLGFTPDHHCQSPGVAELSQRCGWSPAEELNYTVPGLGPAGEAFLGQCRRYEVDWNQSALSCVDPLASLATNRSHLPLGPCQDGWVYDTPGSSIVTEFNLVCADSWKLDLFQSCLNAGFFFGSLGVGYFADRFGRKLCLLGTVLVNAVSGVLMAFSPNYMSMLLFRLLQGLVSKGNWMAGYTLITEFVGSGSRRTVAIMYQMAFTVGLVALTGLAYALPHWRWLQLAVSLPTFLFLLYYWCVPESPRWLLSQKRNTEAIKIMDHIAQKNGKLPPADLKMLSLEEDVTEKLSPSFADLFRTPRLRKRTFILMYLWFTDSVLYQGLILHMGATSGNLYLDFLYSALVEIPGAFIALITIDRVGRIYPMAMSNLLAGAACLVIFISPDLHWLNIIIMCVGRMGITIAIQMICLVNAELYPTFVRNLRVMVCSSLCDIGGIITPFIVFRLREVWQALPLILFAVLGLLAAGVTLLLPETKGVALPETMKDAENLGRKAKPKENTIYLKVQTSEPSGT
Description: Ranitidine uptake in HEK293 cells overexpressing OCT1*5. Type of data set: in vitro ADME. The following applies: 1 μM and 10 μM ranitidine, 2 min.
Description: (§1) HEK293 or CHO cells overexpressing the human OCT1 alleles *1A (characterized by the amino acid substitution Met408Val), *1B, *1C (Phe160Leu), *1D (Pro341Leu/Met408Val), *2 (Met420del), *3 (Arg61Cys), *4 (Gly401Ser), *5 (Gly465Arg/Met420del), *6 (Cys88Arg/Met420del), *7 (Ser14Phe), *8A (Arg488Met), *8B (Arg488Met/Met408Val), *9 (Pro117Leu), *10 (Ser189Leu), *11 (Ile449Thr), *12 (Ser29Leu), or *13 (Thr245Met), the human OCT2 reference and variant alleles (Ala270Ser), human OCT3, and the control cells (transfected with the empty pcDNA5 vector) were generated by targeted chromosomal integration using the Flp-In™ System (Life Technologies, Darmstadt, Germany).
(§2) Six hundred thousand HEK293 or CHO cells were plated per well in 12-well plates (pre-coated with poly-D-lysine) and were grown for 48 hours to reach confluence. Cells were kept at 37°C and 5% CO2 in DMEM (HEK293) or RPMI (CHO), supplemented with 10% FCS, 100 U/ml penicillin, and 100 μg/ml streptomycin. Uptake experiments were performed at pH 7.4 using HBSS supplemented with 10 mM HEPES buffer (herein referred to as HBSS+). […]
(§3) For all transport measurements, the intracellular amount of substrate was normalized to the total amount of protein of the sample as measured using the bicinchoninic acid assay [49].
(§4) For quantification of intracellular substrates, the cell debris were removed by centrifugation at 17,000 x g for 10 min. […]

The conditions of data set [2]: dogs; cited from earlier work.
The conditions of data set [3]: cited from earlier work.
In the next data set the target is T2, OCT1*13 (Thr245Met) (Homo sapiens, UniProt O15245, L160F/T245M).
T2 construct: expressed in transfected cells; host or cells: HEK293 T-REx (Flp-In)
T2 sequence (O15245 1-554 L160F/T245M): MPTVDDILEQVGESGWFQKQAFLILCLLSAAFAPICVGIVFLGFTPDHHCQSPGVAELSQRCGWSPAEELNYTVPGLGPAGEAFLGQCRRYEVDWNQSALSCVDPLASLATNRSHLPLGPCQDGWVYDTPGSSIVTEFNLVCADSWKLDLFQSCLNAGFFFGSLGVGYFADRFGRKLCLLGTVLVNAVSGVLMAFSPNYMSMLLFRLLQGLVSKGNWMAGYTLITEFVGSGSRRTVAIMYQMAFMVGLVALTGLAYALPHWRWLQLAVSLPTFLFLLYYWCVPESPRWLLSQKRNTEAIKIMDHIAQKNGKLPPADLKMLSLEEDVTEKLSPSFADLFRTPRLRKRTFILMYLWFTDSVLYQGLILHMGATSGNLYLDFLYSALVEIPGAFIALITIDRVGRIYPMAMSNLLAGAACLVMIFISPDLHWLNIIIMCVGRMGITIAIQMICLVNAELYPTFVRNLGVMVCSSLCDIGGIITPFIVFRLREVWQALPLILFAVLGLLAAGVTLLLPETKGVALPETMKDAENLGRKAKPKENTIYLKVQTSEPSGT
Description: Ranitidine uptake in HEK293 cells overexpressing OCT1*13. Particulars: 1 μM and 10 μM ranitidine, 2 min. Type of data set: in vitro ADME.

For a further data set, the target named is T3, OCT1*3 (Arg61Cys) (Homo sapiens, UniProt O15245, L160F/R61C).
T3 sequence (O15245 1-554 R61C/L160F): T2 sequence (O15245 1-554 L160F/T245M) with R61C, M245T

Another data set addresses T4, OCT1*1C (Phe160Leu) (Homo sapiens, UniProt O15245).
T4 sequence (O15245 1-554): T2 sequence (O15245 1-554 L160F/T245M) with F160L, M245T
Particulars: 1 and 10 μM ranitidine, 2 min.

Substitutions are numbered along the chain they refer to. “Also recorded” adds a separate entry of the source.

Description for OCT1*13 (Thr245Met): as §1, §2, §3, §4
Description for OCT1*1C (Phe160Leu): as §1, §2, §3, §4
Description for OCT1*3 (Arg61Cys): as §1, §2, §3, §4

With `CNC(=C[N+](=O)[O-])NCCSCc1ccc(CN(C)C)o1` [ranitidine, Ranitidine], in data set [1], the ranitidine transport activity result is given as “completely lacked ranitidine uptake; also recorded: complete lack of ranitidine transport activity”. Moreover, the “reduction of basolateral uptake by co-administration of probenecid” value in data set [2] was “four-fold”. Besides, the “portion eliminated unchanged via renal excretion” value in data set [3] (after oral administration) is “approximately half”. For the same compound, in data set [3], the oral bioavailability was 50–60% and the “time to maximal plasma concentrations after administration” value was “two to three”. In data set [3] (highest clinical dose (300 mg)), the “[I]1, mean unbound ranitidine steady state total Cmax” value is 2200 nM. In data set [3] (increase from 50%), the “bioavailability in hepatic dysfunction” value was 70%. Also, the volume of distribution in data set [3] (no reference given) is about 1.4 L/kg. Besides, on OCT1*13 (Thr245Met), the ranitidine transport activity entry was “completely lacked ranitidine uptake; also recorded: complete lack of ranitidine transport activity”. Moreover, at OCT1*3 (Arg61Cys), the “decrease of vmax compared to the reference allele” value is “more than 50%”. Moreover, on OCT1*1C (Phe160Leu), the “uptake of ranitidine compared to the reference allele” value is “no significant difference”.

Values taken from publication PMC5728534 (PLoS ONE, 2017).
